One test has as its system Pf(NF54). The test is described as follows: Drug-sensitive P. falciparum NF54, [3H]-hypoxanthine incorporation. Type of test: cell-based. Conditions: Plasmodium falciparum, drug-sensitive strain. The text has this:
3.2 Cytotoxicity Studies (Dundee)
In vi t ro cy totox i ci ty s tudies can be ca rri ed out us i ng Hep G 2 (Human C aucas i an hepatocy te ca rci noma, ECACC cat. no. 850 114 30) us ed as i ndi cators f or g eneral mammal i an cel l tox i ci ty . […]
3.3 In vitro Cell Assay D ata Analysis (Du ndee) […]
as 0%. Qual i ty control c ri teri a for passi ng pl ates were as fol l ow s : Z’ > 0.
< 15 . T he f ormula used to calculate Z’ is 1- 3´ (St D e v _ hi gh + St D e v_ low) . […]
Al l EC50 Curve fitti ng was undertaken usi ng XLFi t versi on 4.2 usi ng Model 205 wi th the foll owi ng 4 paramet ri c equat i on: A + (?-A) ,where A=% i nhi bi ti on at bo ttom, B=% i nhi bi ti on at top, C= EC , […]
D= slope, x= inhibitor concentration a nd y= % inhibition. […]
was fixed to 100 only when at least 50% of inhibition was reached. […]
Hoffmann-La Ro che Ltd) a nd resi stant strai ns K1 and TM90C2B (fr om the Malaria Research an d Reference Reag ent Res ou rce C enter, accu rate d es cri pti ons of the g eneti c backg roun ds of thes e strains can be obtained at http://www.beiresources.org) were cultivated in a variation of the medium prev i ous l y des cri bed (5, 6), c onsi sti ng of RPMI 16 40 su ppl emented wi th 0.5% ALBUMAX® II, 25 m M Hepes , 25 mM NaHC O3 (pH 7. […] The re s ul t s were recorded and expressed as a percentage of the untreated controls. […]

A further test addresses T1, CYP1A2 (Homo sapiens, UniProt P05177).
T1 construct: purchased Cypex, Dundee, UK; host or cells: bacterial membranes (bactosomes)
The test is described as follows: Fluorescence-based CYP inhibition, CYP1A2. Type of test: in vitro ADME. The protocol:
4.7 F lu or e s ce nce-based CYP I nhibition usin g recombinantly expressed CYP b actosomes Fl uorogeni c C YP i nhi bi t i on s t udi es w ere c ondu ct ed at 37 °C i n 96-well, flat-bot t om, cl ear p ol y s t y rene pl at es. I ncubat i on mi xt ures cont ai ni ng Eas y C YP bact os omes (1000 pmol /ml , 10 mg /ml C y pex TM, Dundee, UK), fl uorogeni c substrate (Cypex TM) and 50 mM potas s i um phosphat e buffer (p H 7. 4) w er e prepared at t he fol l ow i ng fi nal concent rat i ons : C YP1A2, 5 pmol /ml + 35 µ M et hox y res orufi n (ER) ; CYP2C9, 10 pm ol/ml + 30 µM 7-methoxy-4-(tri fl uo romethy l )-coumari n (MFC ); C YP 2C 19, 5 pm ol /ml + 25 µM 3-cy ano-7-eth oxycoumarin (CEC); C YP 2D 6, 10 pmol /ml + 6 µM 7-meth oxy-4-(ami nomethy l )- coumari n (MAMC ); C YP 3A4, 10 pmol /ml + 1 µM diethoxyfluorescein (DEF) and 10 pmol /ml + 15 µM 7-benz y l ox y qui nol i ne (BQ ). […] 0125 ( 1A2 and 2C 9 onl y ) o r 0. 025 mg /ml (al l ot her i s oforms ). […] Positive control inhibitor, miconazole, was prepared as a 500 µM s olution in DMSO and similarly diluted.
For eac h i sofo rm, 2 20 µl of i ncubati on mi x was added to each wel l of a 96-well, flat-bot t om, cl ear pol y s t y rene pl at e. Al i quot s (5 µl) of each compound 5 conce ntrati on was then mi x ed wi th 220 µl of the incubation mix and pre-incubated at 37 °C for 5 min (final test compound concentration range: […]

The test system of a further test is PfKRS1. The note with it: cited from earlier work.

T1 sequence (P05177 whole entry): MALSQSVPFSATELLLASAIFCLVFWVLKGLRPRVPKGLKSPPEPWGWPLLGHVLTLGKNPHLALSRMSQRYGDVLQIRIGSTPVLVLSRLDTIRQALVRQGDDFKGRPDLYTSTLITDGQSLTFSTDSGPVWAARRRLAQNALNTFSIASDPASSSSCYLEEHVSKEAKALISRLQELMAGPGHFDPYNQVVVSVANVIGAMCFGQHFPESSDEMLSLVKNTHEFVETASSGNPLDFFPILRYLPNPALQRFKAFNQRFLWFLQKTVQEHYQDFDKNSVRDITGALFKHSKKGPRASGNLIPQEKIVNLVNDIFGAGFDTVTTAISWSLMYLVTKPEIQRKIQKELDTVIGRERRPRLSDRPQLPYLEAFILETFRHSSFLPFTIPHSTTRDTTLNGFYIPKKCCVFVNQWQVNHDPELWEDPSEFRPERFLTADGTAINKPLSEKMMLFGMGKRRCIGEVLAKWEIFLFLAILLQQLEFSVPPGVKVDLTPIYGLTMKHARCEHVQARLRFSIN

`O=C(NCC1(O)CCC(F)(F)CC1)c1cc(=O)c2cc(F)ccc2o1` [Compound 5]: a half-maximal response in the test with Pf(NF54) (EC50) required 390 nM. Moreover, the IC50 against CYP1A2 is over 10000 nM.

For `C[C@H]1CCC[C@H](C[C@H]2Cc3cc(O)cc(O)c3C(=O)O2)O1` [Compound 1, cladosporin, reference compound], the “selectivity for cytosolic PfKRS1 compared with HsKRS” value with PfKRS1 was over 100 fold.

For orientation: EC50 means the concentration needed to bring the measured effect to its halfway point. The low end stands for an effect from little substance, the high end for a need for much substance. By IC50 is commonly meant the concentration needed to halve the response being measured. Lower therefore signals greater potency.

Values taken from publication PMC6452685, “Lysyl-tRNA synthetase as a drug target in malaria and cryptosporidiosis” (Proceedings of the National Academy of Sciences of the …, 2019).
